# Read-outs that look alike come from different tables or passages of the source.
# How the values were obtained:
# [1] = target: EeAChE (Electrophorus electricus, UniProt O42275); assay: AChE inhibition assay; format: biochemical
# [2] = target: hBACE 1 (Homo sapiens, UniProt P56817); assay: BACE 1 inhibition assay; format: biochemical
# [3] = read-out: eeAChE IC50 (μM) ± SD, Ellman assay, mean ± SD of three experiments
# [4] = read-out: hBACE 1 IC50 (μM) ± SD, FRET assay, mean ± SD of three experiments
# hBACE 1, sequence (P56817 46-501): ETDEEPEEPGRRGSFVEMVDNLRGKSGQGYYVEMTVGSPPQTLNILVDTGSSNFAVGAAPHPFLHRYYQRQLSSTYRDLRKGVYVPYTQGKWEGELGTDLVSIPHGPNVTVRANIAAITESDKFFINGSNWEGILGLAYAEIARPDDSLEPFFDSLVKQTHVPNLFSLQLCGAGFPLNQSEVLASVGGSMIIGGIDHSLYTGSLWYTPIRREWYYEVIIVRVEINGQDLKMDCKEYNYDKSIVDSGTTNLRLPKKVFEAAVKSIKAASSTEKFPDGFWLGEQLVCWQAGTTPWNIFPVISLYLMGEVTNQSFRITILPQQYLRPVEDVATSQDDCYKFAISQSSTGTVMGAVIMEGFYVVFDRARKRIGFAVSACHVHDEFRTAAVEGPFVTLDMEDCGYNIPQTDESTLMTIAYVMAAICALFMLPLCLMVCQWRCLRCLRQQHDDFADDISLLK
# EeAChE, sequence (O42275 24-633): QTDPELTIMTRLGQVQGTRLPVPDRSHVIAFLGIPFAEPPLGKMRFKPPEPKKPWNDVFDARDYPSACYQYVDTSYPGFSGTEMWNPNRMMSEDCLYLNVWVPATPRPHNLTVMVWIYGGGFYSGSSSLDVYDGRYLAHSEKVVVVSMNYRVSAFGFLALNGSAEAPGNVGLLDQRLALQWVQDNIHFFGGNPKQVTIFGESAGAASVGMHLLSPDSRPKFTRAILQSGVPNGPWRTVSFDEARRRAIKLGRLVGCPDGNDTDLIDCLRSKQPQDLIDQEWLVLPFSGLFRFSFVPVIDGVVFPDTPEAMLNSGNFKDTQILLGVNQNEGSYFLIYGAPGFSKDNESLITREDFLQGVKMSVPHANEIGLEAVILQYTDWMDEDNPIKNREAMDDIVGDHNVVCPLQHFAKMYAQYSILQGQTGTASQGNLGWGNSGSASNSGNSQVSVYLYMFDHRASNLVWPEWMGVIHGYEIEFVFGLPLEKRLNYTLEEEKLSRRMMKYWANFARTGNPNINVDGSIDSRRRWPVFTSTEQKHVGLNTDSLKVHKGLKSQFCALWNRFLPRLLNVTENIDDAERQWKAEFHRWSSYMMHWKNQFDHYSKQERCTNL
SMILES,IC50 [1],IC50 [2],"IC50 [1, 3]","IC50 [2, 4]",AChE inhibition (% of inhibition) ([1]; concentration not given),BACE 1 inhibition (%) ([2]; concentration not given)
"[H]/N=C(/N)NN=C(/C=C/c1ccccc1)c1cccn1Cc1cc(Cl)ccc1Cl [Compound 2e, (Z)-2-((E)-1-(1-(2,5-Dichlorobenzyl)-1H-pyrrol-2-yl)-3-phenylallylidene)hydrazine-1-carboximidamide]",75.6 ± 3.09 µM,178.2 ± 0.92 µM,–,–,–,–
"[H]/N=C(/N)NN=C(/C=C/c1ccccc1)c1cccn1Cc1cc(OC)cc(OC)c1 [Compound 2a, (Z)-2-((E)-1-(1-(3,5-Dimethoxybenzyl)-1H-pyrrol-2-yl)-3-phenylallylidene)hydrazine-1-carboximidamide]",231.2 ± 2.26 µM,95.8 ± 3.45 µM,–,–,–,–
"[H]/N=C(/N)NN=C(/C=C/c1ccc(C(F)(F)F)cc1)c1cccn1Cc1ccc(CCCC)cc1 [Compound 3b, (Z)-2-((E)-1-(1-(4-Butylbenzyl)-1H-pyrrol-2-yl)-3-(4-(trifluoromethyl)phenyl)allylidene)hydrazine-1-carboximidamide]",–,–,57.4 ± 1.12 µM,204.6 ± 0.42 µM,–,–
"[H]/N=C(/N)NN=C(/C=C/c1ccc(OC)c(OC)c1)c1cccn1Cc1ccccc1 [Compound 1g, (Z)-2-((E)-1-(1-Benzyl-1H-pyrrol-2-yl)-3-(3,4-dimethoxyphenyl)allylidene)hydrazine-1-carboximidamide]",146 ± 2.4 µM,114 ± 1.7 µM,–,–,–,–
"[H]/N=C(/N)NN=C(/C=C/c1ccccc1Cl)c1cccn1Cc1ccccc1 [Compound 1b, (Z)-2-((E)-1-(1-Benzyl-1H-pyrrol-2-yl)-3-(2-chlorophenyl)allylidene)hydrazine-1-carboximidamide]",174 ± 0.92 µM,183.8 ± 0.92 µM,–,–,–,–
"[H]/N=C(/N)NN=C(/C=C/c1cccc(OC)c1)c1cccn1Cc1ccccc1 [Compound 1i, (Z)-2-((E)-1-(1-Benzyl-1H-pyrrol-2-yl)-3-(3-methoxyphenyl)allylidene)hydrazine-1-carboximidamide]",206.6 ± 0.49 µM,134.1 ± 0.21 µM,–,–,–,–
"[H]/N=C(/N)NN=C(/C=C/c1ccccc1)c1cccn1Cc1cccc(Br)c1 [Compound 2m, (Z)-2-((E)-1-(1-(3-Bromobenzyl)-1H-pyrrol-2-yl)-3-phenylallylidene)hydrazine-1-carboximidamide]",51.14 ± 0.22 µM,134 ± 3.11 µM,–,–,–,–
"[H]/N=C(/N)NN=C(/C=C/c1ccccc1)c1cccn1Cc1ccc(C)cc1 [Compound 2f, (Z)-2-((E)-1-(1-(4-Methylbenzyl)-1H-pyrrol-2-yl)-3-phenylallylidene)hydrazine-1-carboximidamide]",176.7 ± 0.64 µM,85.7 ± 2.43 µM,–,–,–,–
"[H]/N=C(/N)NN=C(/C=C/c1ccc(C(C)(C)C)cc1)c1cccn1Cc1ccc(C(F)(F)F)cc1 [Compound 3h, (Z)-2-((E)-3-(4-(tert-Butyl)phenyl)-1-(1-(4-(trifluoromethyl)benzyl)-1H-pyrrol-2-yl)allylidene)hydrazine-1-carboximidamide]",71.17 ± 0.49 µM,179 ± 2.26 µM,–,–,–,–
"[H]/N=C(/N)NN=C(/C=C/c1ccc(OC)c(OC)c1)c1cccn1Cc1ccc(F)cc1C(F)(F)F [Compound 3c, (Z)-2-((E)-3-(3,4-Dimethoxyphenyl)-1-(1-(4-fluoro-2-(trifluoromethyl)benzyl)-1H-pyrrol-2-yl)allylidene)hydrazine-1-carboximidamide]",–,–,58.19 ± 0.44 µM,204 ± 2.33 µM,–,–
"[H]/N=C(/N)NN=C(/C=C/c1ccccc1)c1cccn1Cc1ccc(OC(F)(F)F)cc1 [Compound 2b, (Z)-2-((E)-3-Phenyl-1-(1-(4-(trifluoromethoxy)benzyl)-1H-pyrrol-2-yl)allylidene)hydrazine-1-carboximidamide]",–,–,231.7 ± 1.27 µM,86.19 ± 0.38 µM,–,–
"[H]/N=C(/N)NN=C(/C=C/c1ccccc1)c1cccn1Cc1cc(F)ccc1F [Compound 2d, (Z)-2-((E)-1-(1-(2,5-Difluorobenzyl)-1H-pyrrol-2-yl)-3-phenylallylidene)hydrazine-1-carboximidamide]",–,–,153 ± 1.98 µM,107 ± 3.04 µM,–,–
"[H]/N=C(/N)NN=C(/C=C/c1ccc([N+](=O)[O-])cc1)c1cccn1Cc1ccccc1 [Compound 1c, (Z)-2-((E)-1-(1-Benzyl-1H-pyrrol-2-yl)-3-(4-nitrophenyl)allylidene)hydrazine-1-carboximidamide]",43.25 ± 0.41 µM,194.3 ± 0.99 µM,–,–,38.07%,–
"[H]/N=C(/N)NN=C(/C=C/c1ccccn1)c1cccn1Cc1ccccc1 [Compound 1j, (Z)-2-((E)-1-(1-Benzyl-1H-pyrrol-2-yl)-3-(pyridin-2-yl)allylidene)hydrazine-1-carboximidamide]",95.6 ± 2.4 µM,13.7 ± 0.77 µM,–,–,–,43.62%
"[H]/N=C(/N)NN=C(/C=C/c1ccccc1)c1cccn1Cc1ccc(F)cc1F [Compound 2k, (Z)-2-((E)-1-(1-(2,4-Difluorobenzyl)-1H-pyrrol-2-yl)-3-phenylallylidene)hydrazine-1-carboximidamide]",61.1 ± 1.48 µM,133 ± 1.84 µM,–,–,–,–
"[H]/N=C(/N)NN=C(/C=C/c1ccc(OC)c(OC)c1)c1cccn1Cc1cc(OC)cc(OC)c1 [Compound 3e, (Z)-2-((E)-1-(1-(3,5-Dimethoxybenzyl)-1H-pyrrol-2-yl)-3-(3,4-dimethoxyphenyl)allylidene)hydrazine-1-carboximidamide]",57.2 ± 2.47 µM,162 ± 2.43 µM,–,–,–,–

# — PMC11341970 (RSC Advances, 2024)
